The values that follow come from the SangsterLogP compilation.

Series [1] is described as follows: method code SF-RC, from DOI: 10.1016/j.nucmedbio.2007.04.005, PMID: 17591554. Conditions: pH 7.4.
Series [2] is described as follows: method code SF, from DOI: 10.1021/acs.jmedchem.6b00554, PMID: 27500461. Conditions: pH 7.4.
A short description of series [3]: method code SF-AS, from DOI: 10.1111/j.2042-7158.1989.tb06480.x, PMID: 2570831. Conditions: pH 7.4.
Series [4] is described as follows: method code SF-RC, from DOI: 10.1016/j.mibio.2003.09.009. Conditions: pH 7.4.
Series [5] in a line: method code SF-AS, from Sengupta, C.; Mondal, K. (1986). Partition coefficients of some anticoagulants and coagulants in relation to their biological activity. Indian J Pharm Sci, 48(2)51-52.
Experiment in series [6]: not given
This is another data set of the same source.

Experiment in series [7]: not given
This is another data set of the same source.

Experiment in series [8]: not given
This is another data set of the same source.

Series [9] in a line: method code SF, from DOI: 10.1016/s0223-5234(00)80025-2, PMID: 11278041. Conditions: pH 7.4.
Experiment in series [10]: not given
This is another data set of the same source.

Experiment in series [11]: not given
This is another data set of the same source.

Experiment in series [12]: not given
This is another data set of the same source.

Series [13] can be described thus: method code SF, from DOI: 10.1016/j.ejps.2014.02.002, PMID: 24530864. Conditions: pH 7.4.
Experiment in series [14]: not given
This is another data set of the same source.

Series [15] can be described thus: method code SF-HPLC, from DOI: 10.1021/js950346l, PMID: 9109056.
The nature of series [16]: method code SF, from DOI: 10.1016/0223-5234(96)89550-x.
Series [17] can be described thus: method code SF-AS, from DOI: 10.1021/es00127a005.
Experiment in series [18]: not given
This is another data set of the same source.

Experiment in series [19]: not given
This is another data set of the same source.

Experiment in series [20]: not given
This is another data set of the same source.

Series [21] in a line: method code SF-AS, from PMID: 7306420. Conditions: pH 7.5.
A short description of series [22]: method code SF-HPLC, from Gao, X.; Yu, Y.; Wang, Y.; Pi, J.; Zhang, W.; Xiao, X. (2013). Determination of equilibrium solubility and apparent partition coefficient of bakuchiol. West China Journal of Pharmaceutical Sciences, ….
Series [23] is described as follows: method code SF, from DOI: 10.1097/00004424-199009001-00048. Conditions: pH 7.4.
Series [24] is described as follows: method code SF, from DOI: 10.1016/s0969-8051(99)00063-3, PMID: 10628565. Conditions: pH 7.4.
Series [25] in a line: method code SF-HPLC, from DOI: 10.1016/j.bmc.2009.06.014, PMID: 19586774. Conditions: pH 7.4.
The nature of series [26]: method code SF-RC, from DOI: 10.1007/s00259-007-0645-5, PMID: 18057934. Conditions: pH 7.4.
Experiment in series [27]: not given
This is another data set of the same source.

Series [28] can be described thus: method code SF-RC, from DOI: 10.1021/es60172a005, PMID: 22280000.
The nature of series [29]: method code SF-RC, from DOI: 10.1267/nukl06010041, PMID: 16493513. Conditions: pH 7.4.
Series [30] is described as follows: method code SF-AS, from PMID: 582102. Conditions: pH 3.0.
Series [31] is described as follows: method code SF-HPLC, from DOI: 10.1021/jm1007903, PMID: 20828199. Conditions: pH 7.4.
Series [32] is described as follows: method code SF-HPLC, from DOI: 10.1016/j.bmc.2015.09.009, PMID: 26385444.
Series [33] in a line: method code SF, from DOI: 10.1021/jm9018146, PMID: 20232803. Conditions: pH 7.4.
Experiment in series [34]: not given
The source holds these as a separate data set.

Experiment in series [35]: not given
The source holds these as a separate data set.

Series [36] is described as follows: method code SF-AS, from DOI: 10.1016/0048-3575(89)90091-6.
Experiment in series [37]: not given
The source holds these as a separate data set.

Series [38] can be described thus: method code SF-HPLC, from DOI: 10.1016/0378-5173(94)90060-4. Conditions: pH 5.0.
Series [39] is described as follows: method code SF-AS, from DOI: 10.3390/molecules16097565, PMID: 21894089.
Experiment in series [40]: not given
The source holds these as a separate data set.

A short description of series [41]: method code SF, from Zhang, Y. (2010). Determination and Correlation of 1-Octanol/Water Partition Coefficients for Six Quinolones from 293.15 K to 323.15 K. Chemical Research in Chinese Universities, 26(4)636-639.
Experiment in series [42]: not given
The source holds these as a separate data set.

Experiment in series [43]: not given
The source holds these as a separate data set.

For `COc1ccc(/C=C2\CCCN=C2c2cccnc2)c(OC)c1`, the logD in series [1] amounted to 2.82.

In turn, `Cc1sc(=NC(=O)C2C(C)(C)C2(C)C)n(CCCCF)c1C` gave a logD in [2] of 3.22.

Compound `CCCCCCCCCCCC(=O)N1CCCCCC1` came in with a lipophilicity (logP) of 7.3.

Regarding `Nc1ncnc2c1ncn2C(c1ccccc1)c1ccccc1`, the logD in [3] is 3.19.

As to `CN1CCc2cc(Cl)c(O)cc2C(c2cccc3ccoc23)C1` (centres undefined), the logD in series [4] is 3.

Turning to `CC(=O)CC(c1ccc([N+](=O)[O-])cc1)c1c(O)c2ccccc2oc1=O` (centres undefined), the logP in [5] is 1.98.

Turning to `CCCCCCCCCCOc1ccc(C(=O)O)cc1`, the logP in series [6] worked out at 5.77.

In [7], `CN(C)CC/C=C1/c2ccccc2Sc2ccc(Cl)cc21` gave a logP of 5.18.

`CN(C)CCc1c[nH]c2ccc(CS(=O)(=O)N3CCCC3)cc12` gave a logP in series [8] of 1.6.

In turn, `CC(C)Cc1ccc(C(C)C(=O)OCN2C(=O)CCC2=O)cc1` (centres undefined) returned a logD in [9] of 2.62.

With `c1ccc(Oc2ccccc2-c2ccccc2)cc1`, the logP in series [10] came to 5.66.

On to `CCC(c1ccc(O)cc1)C(C(C)=O)c1ccc(O)cc1` (centres undefined), for which, in series [11], the logP was 3.1.

Take `COc1ccc(C2=CC(c3ccc(S(C)(=O)=O)cc3)C=NC2=O)cn1` (centres undefined): in series [12], the logP is 1.7.

On to `Cc1ncc2n1-c1ccc(Cl)cc1C(c1ccccc1F)=NC2`, for which the logD in series [13] stood at 3.

As to `O=S1(=O)OC(c2ccc(O)cc2)(c2ccc(O)cc2)c2ccccc21`, the logP in series [14] was determined as 3.02.

As for `COc1ccc2c(c1)c(CC(=O)O)c(C)n2C(=O)c1ccc(Cl)cc1`, in [15], the logP was found to be 3.86.

In [16], `O=C(Nc1ccn(C2CSC(CO)O2)c(=O)n1)c1cnc2ccccc2c1` (centres undefined) showed a logP of 0.87.

The compound `Oc1ccc(C(c2ccccc2)c2ccc(O)cc2)cc1` came in with a logP in [17] of 4.3.

Consider `O=S(c1ccc(F)cc1)C1CCN(CCc2ccc(F)cc2F)CC1` (centres undefined), for which the logP in [18] stood at 2.67.

`O=C(NC12CC3CC(CC(C3)C1)C2)C(O)c1ccccc1` (centres undefined) registered a logP in [19] of 3.09.

`CC(=O)Oc1c(C)cc(OCC(O)CNC(C)C)c(C)c1C` (centres undefined) showed a logP in [20] of 1.95.

As for `C#CCN1C(=O)CN=C(c2ccccc2)c2cc(Cl)ccc21`, in [21], the logD came to 2.87.

Consider `C=C[C@@](C)(/C=C/c1ccc(O)cc1)CCC=C(C)C`, for which the logP in series [22] was found to be 4.27.

In turn, `O=C(NCC(O)CO)c1c(I)c(C(=O)NCC(O)CO)c(I)c(N(CCO)C(=O)CO)c1I` (centres undefined) came in with a logD in [23] of -2.98.

`CC(=O)OCC1C(OC(C)=O)C(OC(C)=O)C(OC(C)=O)CN1CCCI` (centres undefined): in series [24], the logD came out at 1.76.

In series [25], `CCc1cc(Cl)cc2[nH]c(=O)c(-c3cccc(NC)c3)c(O)c12` displayed a logD of 1.92.

For the compound `CCN(CC)C(=O)Cc1c(-c2ccc(I)cc2)nc2ccc(Cl)cn12`, in series [26], the logD amounted to 3.1.

As for `CCC(C)(CC)c1cc(NC(=O)c2c(OC)cccc2OC)on1`, the logP in series [27] worked out at 3.

`c1ccc2nc(-c3ccc4ccccc4n3)ccc2c1`: the logP in series [28] turned out to be 4.31.

In turn, `Clc1ccc(N2CCN(Cc3cnn4c(I)cccc34)CC2)cc1` displayed a pH-dependent lipophilicity (logD) in series [29] of 2.36.

`COc1ccc(N(CCCC(=O)O)C(=O)c2ccc(Cl)cc2)cc1` showed a logD in series [30] of 2.7.

Compound `CCCCCCCc1c(C)[nH]c2cc(OC)c(Cl)cc2c1=O` had a logD in series [31] of 3.83.

Compound `CC1=C(C(=O)Nc2nc3ccccc3s2)C(c2ccccc2)NC(=S)N1` (centres undefined) came in with a logP in [32] of 2.03.

As for `CCOC(=O)[C@@]1(C)CSC(c2ccc(OCCOCCOC)cc2O)=N1`, the logD in [33] amounted to 3.

For the compound `CCN(CC)CCN1c2ccccc2Sc2ccccc21`, the logP in series [34] amounted to 5.94.

`C[C@]12CCC(=O)C[C@@H]1CC[C@@H]1[C@@H]2[C@@H](F)C[C@]2(C)[C@@H](O)CC[C@@H]12`: in [35], the logP is 3.5.

Turning to `CC1(C)C(C=C2CCSC2=O)C1C(=O)OCc1ccccc1` (centres undefined), the logP in series [36] came out at 4.02.

For the compound `CCN1CCc2cc(S(=O)(=O)Nc3ccc(F)cc3F)cc(NC(C)=O)c21`, the logP in series [37] turned out to be 1.4.

As to `COC(=O)Nc1nc2cc(C(=O)c3ccccc3)ccc2n1C(=O)OC`, the logD in series [38] turned out to be 2.47.

Consider `C[C@H](c1nc2ccc(F)cc2s1)N1C(=O)C(=O)N(c2ccccc2)C1=O`, for which the logP in series [39] stood at 1.51.

For the compound `COc1ccc(N2CCn3c(nc4ccccc4c3=O)C2C)cc1` (centres undefined), in series [40], the logP amounted to 1.29.

The compound `CC1COc2c(N3CCN(C)CC3)c(F)cc3c(=O)c(C(=O)O)cn1c23` (centres undefined) had a logP in series [41] of -0.05.

In series [42], `O=C1/C(=C/c2ccccc2F)CCCc2ccccc21` came in with a logP of 4.55.

For the compound `CC[C@H](Oc1ccccc1)C(=O)N[C@@H]1C(=O)N2[C@@H]1SC(C)(C)[C@@H]2C(=O)O`, the logP in series [43] was found to be 2.58.
